Laboratory results from ChEMBL document CHEMBL1155719, “Synthesis of phakellistatin 11: a micronesia (Chuuk) marine sponge cyclooctapeptide” (2001).
Converted amounts (≈) assume the structure as drawn. Residues, ends and D or L forms follow the SMILES beside them.

Key:
P388 [1] = experiment: Cytotoxicity against mouse P388 cells; type: functional; settings: read-out: ED50 (the source's name)
P388 [2] = experiment: Cytotoxicity against mouse P388 cells by NMR biological activity study; type: functional; settings: read-out: ED50 (the source's name)

| Compound | EC50 (P388 [1]) | EC50 (P388 [2]) |
| --- | --- | --- |
| CC[C@H](C)[C@@H]1NC(=O)[C@@H]2CCCN2C(=O)[C@H](Cc2ccccc2)NC(=O)[C@@H]2CCCN2C(=O)[C@H](Cc2ccc(O)cc2)NC(=O)[C@@H]2CCCN2C(=O)[C@H]([C@@H](C)CC)NC1=O [PHAKELLISTATIN 2] (cyclo(FPIIPYP)) | 0.34 mg/L (≈ 0.411 µM) |  |
| CC[C@H](C)[C@@H]1NC(=O)[C@H](C)NC(=O)[C@H](CC(C)C)NC(=O)[C@H](CO)NC(=O)[C@H](CC(N)=O)NC(=O)[C@H](Cc2ccccc2)NC(=O)[C@@H]2CCCN2C1=O [STYLOSTATIN 1] (cyclo(AIPFNSL)) | 10 mg/L (≈ 13.5 µM) |  |
| CC[C@H](C)[C@@H]1NC(=O)[C@@H]2CCCN2C(=O)[C@H](Cc2ccccc2)NC(=O)[C@@H]2CCCN2C(=O)[C@H](Cc2ccc(O)cc2)NC(=O)[C@@H]2CCCN2C(=O)[C@H]([C@@H](C)CC)NC1=O.Cl [PHAKELLISTATIN 2 (SYNTHETIC)] (cyclo(FPIIPYP)) | 24 mg/L |  |
| CC[C@H](C)[C@@H]1NC(=O)[C@H](CC(C)C)NC(=O)[C@@H]2CCCN2C(=O)[C@H]([C@@H](C)CC)NC(=O)[C@@H]2CCCN2C(=O)[C@H](CO)NC(=O)[C@H](Cc2ccccc2)NC1=O [STYLOPEPTIDE] (cyclo(FSPIPLI)) | 0.1 mg/L (≈ 0.13 µM) | 6 mg/L (≈ 7.81 µM) |
